Series [1] concerns human primary dermal fibroblasts. Kind of series: Cytotoxicity, MTS-based assay. The conditions noted are these: up to 50 μg/mL, 24 or 48 h, three independent experiments in triplicate. The format is cell-based. The method, then:
(§1) 4 Cytotoxicity evaluation of analogue 12. Human primary dermal fibroblasts (A), liver cell line HepG2 (B), and kidney cell line HEK293T (C) cells (5 × 10^3 cells/well in 96-well plates) were treated with increasing concentrations of analogue 12 or 1 μM staurosporine (STS, used as a positive toxicity control) for 24 or 48 h, as indicated. Viability of cells was determined using an MTS-based assay. Results (% cell viability) are the mean ± SD of three independent experiments performed in triplicate. (D) Freshly collected human red blood cells (RBCs) were exposed to increasing concentrations of 12 or Triton X-100 (TX), as indicated, for 1 h. Hemolytic activity (% hemolysis) was determined by spectrophotometrically measuring the release of hemoglobin compared to that with TX (used as a positive control). Results are the mean ± SD of 4 independent experiments performed in duplicate using blood samples from four different anonymous healthy donors. […]
(§2) Bacterial cultures were grown overnight on Mueller-Hinton Agar (MHA) plates and adjusted to a final inoculum of 10^5 – 10^6 CFU/mL. […] MIC values were determined in the media contain ing polysorbate 80 (0.002%, v/v) to prevent non -specific adsorption of the peptides to plastic surfaces. […] All the experiments were performed in two independent duplicates and the MIC was determined as the lowest concentration in which no visible growth was observed. […]

In series [2] the test system is HEK293T. Briefly: Cytotoxicity, MTS-based assay. It is filed as cell-based, human. As to conditions: up to 50 μg/mL, 24 or 48 h, three independent experiments in triplicate. As for the experimental part:
as §1, §2
For orientation: Formazan colour is commonly taken as a measure of viable cells.

Series [3] concerns HepG2. Kind of series: Cytotoxicity, MTS-based assay. As to conditions: up to 50 μg/mL, 24 or 48 h, three independent experiments in triplicate. It is filed as cell-based, human. As for the experimental part: as §1, §2
For series [4], the system named is MDR clinical strains of S. aureus and E. faecium. The format is cell-based, Staphylococcus aureus; Enterococcus faecium. The conditions noted are these: range over 4 S. aureus and 3 E. faecium strains. The method, then: (§3) MICs were performed as previously reported 4. For MIC testing all peptides were dissolved in DMSO.
Bacterial cultures were grown overnight on Mueller-Hinton Agar (MHA) plates and adjusted to a final inoculum of 10^5 – 10^6 CFU/mL. 100 µl of ino culum in Meuller -Hinton broth (MHB) was mixed with equal volume of peptides (dissolved in MHB) at 2x their concentration in a 96 well plate . For daptomycin MIC determination, the same protocol was followed with the addition of 50 mg/L calcium chloride to the medium. MIC values were determined in the media contain ing polysorbate 80 (0.002%, v/v) to prevent non -specific adsorption of the peptides to plastic surfaces. The final peptides concentrations ranged from 0.0625 – 32 µg/mL. The 96 well plates were then incubated at 37 °C for 24 h. All the experiments were performed in two independent duplicates and the MIC was determined as the lowest concentration in which no visible growth was observed. […]

Series [5] concerns MRSA ATCC 33591. Briefly: Resistance study on agar. The conditions noted are these: 10× MIC on agar, 24 h, 37 °C. It is filed as cell-based, Staphylococcus aureus. As for the experimental part:
as §3
Bacterial cultures were grown overnight on Mueller-Hinton Agar (MHA) plates and adjusted to a final inoculum of 10^5 – 10^6 CFU/mL. 100 µl of ino culum in Meuller -Hinton broth (MHB) was mixed with equal volume of peptides (dissolved in MHB) at 2x their concentration in a 96 well plate . […]
MIC values were determined in the media contain ing polysorbate 80 (0.002%, v/v) to prevent non -specific adsorption of the peptides to plastic surfaces. The final peptides concentrations ranged from 0.0625 – 32 µg/mL. The 96 well plates were then incubated at 37 °C for 24 h. All the experiments were performed in two independent duplicates and the MIC was determined as the lowest concentration in which no visible growth was observed. […]
VIII. Time dependent killing of bacteria and resistance studies by analogue 12 […]
Resistance evaluations were conducted following previously described protocols 5. […]

The test system of series [6] is MRSA ATCC 33591. Briefly: Time-kill kinetics. It is filed as cell-based, Staphylococcus aureus. As to conditions: 2.5 μg/mL (10× MIC), MHB with 0.002% polysorbate 80, 37 °C, two independent experiments in duplicate. The method, then: Early-stage time-kill kinetics for analogue 12 against MRSA ATCC 33591 were performed using vancomycin as a control, following the protocol described in Section VIII, Supporting Information.
3 Time-kill kinetics of Novltex analogue 12 and clinical antibiotic (vancomycin) against MRSA 33591. […] Results are the mean ± SD of two independent experiments performed in duplicate.
as §3
Bacterial cultures were grown overnight on Mueller-Hinton Agar (MHA) plates and adjusted to a final inoculum of 10^5 – 10^6 CFU/mL. 100 µl of ino culum in Meuller -Hinton broth (MHB) was mixed with equal volume of peptides (dissolved in MHB) at 2x their concentration in a 96 well plate . For daptomycin MIC determination, the same protocol was followed with the addition of 50 mg/L calcium chloride to the medium. MIC values were determined in the media contain ing polysorbate 80 (0.002%, v/v) to prevent non -specific adsorption of the peptides to plastic surfaces. The final peptides concentrations ranged from 0.0625 – 32 µg/mL. The 96 well plates were then incubated at 37 °C for 24 h. All the experiments were performed in two independent duplicates and the MIC was determined as the lowest concentration in which no visible growth was observed.
Antibiotics MIC break points ( µg/mL)
Table. […]

Positions of bridges follow the written chain, without caps; N, C: chain ends. Non-standard residues stand in square brackets, D forms with d. Residues, ends and D or L forms follow the SMILES beside them. dCha = N[C@H](CC1CCCCC1)C(=O)O

Consider `CC(C)C[C@@H]1NC(=O)[C@H](C)NC(=O)[C@H](NC(=O)[C@H](CO)NC(=O)[C@@H](CCCCN)NC(=O)[C@@H](CC2CCCCC2)NC(=O)[C@@H](N)Cc2ccccc2)[C@H](C)OC(=O)[C@H](CC(C)C)NC1=O` [analogue 12, Leu2Cha–Novltex] (H-F[dCha][dK]S[dT]ALL; ester 5-C), for which, in series [1], the “cytotoxicity (cell viability), primary dermal fibroblasts” value is recorded as “no major cytotoxicity”. The “cytotoxicity (cell viability), HEK293T” value in series [2] was “no major cytotoxicity”. Further, the “cytotoxicity (cell viability), HepG2” value in series [3] is reported as “no major cytotoxicity”. Also, the “MIC against both groups of MDR clinical strains” value in series [4] was in the range of 0.063 to 0.5 µg/mL. Moreover, in series [5], the “emergence of resistant mutants” value is “No resistant MRSA ATCC 33591 mutants emerged”. In addition, the “time to significant bacterial killing” value in series [6] is listed as no more than 6 h.

The values above are taken from publication PMC12481569, “Novltex: A New Class of Antibiotics with Potent Activity against Multidrug-Resistant Bacterial Pathogens–Design, Synthesis, and Biological Evaluation” (Journal of Medicinal Chemistry, 2025).
